In patent US20170008888A1 (KYORIN PHARMACEUTICAL CO., LTD., priority 2014, published 2017):

Columns and labels:
Format in all cases: binding
ERK5 = target: T1, ERK5 (Homo sapiens, UniProt Q13164); assay: Probe-based (AX9989 acyl phosphate ATP probe) kinase profiling in Jurkat lysate: ERK5; conditions: for IC50: calculated from percent inhibition of AX9989 labeling and the screening concentration, Jurkat lysate; for inhibition at 1 µM: screening concentration 1.0 μM, read-out: Kinase inhibition % at indicated screening concentration: ERK5
T1 construct: screened for activity against several kinases in Jurkat cells; endogenous in cells; host or cells: Jurkat cell lysate
T1 sequence (Q13164 whole entry): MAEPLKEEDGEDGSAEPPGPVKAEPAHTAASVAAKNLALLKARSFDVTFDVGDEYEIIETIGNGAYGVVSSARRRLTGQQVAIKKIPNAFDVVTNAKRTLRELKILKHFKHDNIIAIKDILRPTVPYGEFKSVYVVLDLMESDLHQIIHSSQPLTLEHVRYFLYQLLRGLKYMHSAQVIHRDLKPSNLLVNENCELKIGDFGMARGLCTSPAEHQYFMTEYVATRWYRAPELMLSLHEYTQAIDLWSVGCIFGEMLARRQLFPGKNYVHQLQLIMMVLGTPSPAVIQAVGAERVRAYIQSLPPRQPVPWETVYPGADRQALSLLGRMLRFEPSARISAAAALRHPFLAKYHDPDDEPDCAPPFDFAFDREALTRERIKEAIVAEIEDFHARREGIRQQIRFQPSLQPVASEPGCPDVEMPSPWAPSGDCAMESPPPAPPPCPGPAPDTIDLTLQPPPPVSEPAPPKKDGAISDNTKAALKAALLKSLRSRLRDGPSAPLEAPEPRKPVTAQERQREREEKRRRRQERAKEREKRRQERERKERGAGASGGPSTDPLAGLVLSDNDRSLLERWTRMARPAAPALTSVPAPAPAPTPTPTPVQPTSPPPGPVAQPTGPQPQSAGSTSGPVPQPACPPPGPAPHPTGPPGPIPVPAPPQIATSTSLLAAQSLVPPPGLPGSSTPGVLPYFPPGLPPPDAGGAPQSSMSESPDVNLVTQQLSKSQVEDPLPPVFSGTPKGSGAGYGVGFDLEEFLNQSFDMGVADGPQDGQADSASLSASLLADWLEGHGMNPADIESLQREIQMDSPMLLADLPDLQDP
Procedure: (§1) In this example, potency of the compounds as ERK5 inhibitors was assessed, and the compounds were screened for activity against several kinases in Jurkat cells.
(§2) Jurkat cell pellets were resuspended in four volumes of lysis buffer (50 mM HEPES pH 7.5, 150 mM NaCl, 0.1% Triton-X-100, 1% v/v phosphatase, inhibitor cocktail II [EMD/Calbiochem, #524625]), sonicated using a tip, sonicator, and Dounce homogenized. Lysate was cleared by centrifugation, at 16,000 g for 15 min., was gel filtered (BioRad 10DG) and MnCl2 was then added to a final concentration of 20 mM before treatment with the test compound and probe labeling. […] All compound treatments were performed at room temperature.
(§3) Acyl phosphate ATP probe (AX9989) labeling reactions were performed at room temperature with a final probe concentration of 5 μM after a 15 min pre-incubation of lysate with a test compound. All reactions were performed in duplicate, using 445 μl/sample at 5 mg/ml. Probe-labeled lysates were denatured and reduced (6 M urea, 10 mM DTT, 65° C., 15 min), alkylated (40 mM iodoacetamide, 37° C., 30 min, and gel filtered (Sephadex G25) into 10 mM ammonium bicarbonate, 2 M urea, 5 mM methionine. The desalted protein mixture was digested with trypsin (0.015 mg/ml) for 1 hr at 37° C., and desthiobiotinylated peptides were captured using a […] high-capacity streptavidin resin (Thermo Scientific). Captured peptides were then washed extensively using 150 μl/wash with three different wash buffers: (A) 3 times with 1% triton, 0.5% tergitol, 1 mM EDTA in PBS; (B) 18 times with PBS; and (C) 8 times with HPLC grade water. Peptides were eluted from the streptavidin beads using two 35-μL washes of a 50% CH3CN/water mixture containing 0.1% TFA at room temperature.
(§4) Kinase active site peptides were identified and quantified using LC/MS. Percent inhibition was calculated as the normalized decrease in the ESI-MS fragment intensities of probe-labeled peptides in samples incubated with the test compound compared to those without.
ERK5 IC50 values were calculated from the percent inhibition and the screening concentration.

AurA = target: T2, AurA (Homo sapiens, UniProt O14965); assay: Probe-based (AX9989) kinase profiling in Jurkat lysate: AurA; conditions: screening concentration 1.0 μM; read-out: Kinase inhibition % at indicated screening concentration: AurA
T2 construct: screened for activity against several kinases in Jurkat cells; endogenous in cells; host or cells: Jurkat cell lysate
T2 sequence (O14965 1-403): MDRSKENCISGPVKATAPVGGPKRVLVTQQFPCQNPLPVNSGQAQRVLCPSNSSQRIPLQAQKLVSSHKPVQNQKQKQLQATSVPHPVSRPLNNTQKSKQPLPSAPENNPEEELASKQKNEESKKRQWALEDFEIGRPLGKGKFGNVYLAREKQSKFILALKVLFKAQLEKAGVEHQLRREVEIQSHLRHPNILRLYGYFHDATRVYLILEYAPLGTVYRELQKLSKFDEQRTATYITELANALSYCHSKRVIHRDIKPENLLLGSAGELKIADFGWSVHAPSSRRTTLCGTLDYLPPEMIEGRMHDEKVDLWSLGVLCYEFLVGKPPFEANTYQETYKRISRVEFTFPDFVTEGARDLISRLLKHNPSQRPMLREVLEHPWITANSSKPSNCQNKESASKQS
Procedure: as §1, §2, §3, §4

AurB or AurC = assay: Probe-based (AX9989) kinase profiling in Jurkat lysate: AurB or AurC; conditions: screening concentration 1.0 μM
Procedure: as §1, §2, §3, §4

JAK1 = target: T3, JAK1 (Homo sapiens, UniProt P23458); assay: Probe-based (AX9989) kinase profiling in Jurkat lysate: JAK1; conditions: screening concentration 1.0 μM; read-out: Kinase inhibition % at indicated screening concentration: JAK1
T3 construct: screened for activity against several kinases in Jurkat cells; endogenous in cells; host or cells: Jurkat cell lysate
T3 sequence (P23458 whole entry): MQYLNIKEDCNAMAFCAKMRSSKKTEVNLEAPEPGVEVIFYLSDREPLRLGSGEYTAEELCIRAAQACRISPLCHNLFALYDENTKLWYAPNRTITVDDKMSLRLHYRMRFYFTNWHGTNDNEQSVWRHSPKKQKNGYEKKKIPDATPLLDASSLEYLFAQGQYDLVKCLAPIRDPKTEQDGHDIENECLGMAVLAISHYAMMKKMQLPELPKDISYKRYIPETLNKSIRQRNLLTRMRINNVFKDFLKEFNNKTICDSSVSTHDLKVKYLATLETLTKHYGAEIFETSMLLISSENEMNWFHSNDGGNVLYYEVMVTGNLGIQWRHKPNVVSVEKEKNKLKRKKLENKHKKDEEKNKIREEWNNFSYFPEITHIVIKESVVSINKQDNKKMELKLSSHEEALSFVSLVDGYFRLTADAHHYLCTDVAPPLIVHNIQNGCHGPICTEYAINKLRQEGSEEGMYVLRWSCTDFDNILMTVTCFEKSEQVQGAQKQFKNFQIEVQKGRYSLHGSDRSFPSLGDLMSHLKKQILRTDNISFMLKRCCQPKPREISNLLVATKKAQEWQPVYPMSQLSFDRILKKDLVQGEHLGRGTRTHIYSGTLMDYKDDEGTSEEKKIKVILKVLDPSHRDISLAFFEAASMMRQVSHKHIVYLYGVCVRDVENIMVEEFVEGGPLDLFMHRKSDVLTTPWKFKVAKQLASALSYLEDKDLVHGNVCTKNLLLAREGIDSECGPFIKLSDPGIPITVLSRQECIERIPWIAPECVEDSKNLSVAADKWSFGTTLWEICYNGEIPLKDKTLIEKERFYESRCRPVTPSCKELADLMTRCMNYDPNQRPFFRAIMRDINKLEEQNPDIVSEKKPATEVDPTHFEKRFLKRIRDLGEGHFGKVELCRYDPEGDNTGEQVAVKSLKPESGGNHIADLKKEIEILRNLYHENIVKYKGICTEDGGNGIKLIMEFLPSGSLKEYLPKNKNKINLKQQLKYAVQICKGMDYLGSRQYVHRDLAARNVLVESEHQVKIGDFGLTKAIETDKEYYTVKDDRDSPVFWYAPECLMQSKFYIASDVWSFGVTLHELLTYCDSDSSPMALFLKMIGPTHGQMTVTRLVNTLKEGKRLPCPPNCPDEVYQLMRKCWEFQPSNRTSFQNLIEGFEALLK
Procedure: as §1, §2, §3, §4

AMPKa1 or AMPKa2 = assay: Probe-based (AX9989) kinase profiling in Jurkat lysate: AMPKa1 or AMPKa2; conditions: screening concentration 1.0 μM
Procedure: as §1, §2, §3, §4

TAO2 = target: T4, TAO2 (Homo sapiens, UniProt Q9UL54); assay: Probe-based (AX9989) kinase profiling in Jurkat lysate: TAO2; conditions: screening concentration 1.0 μM; read-out: Kinase inhibition % at indicated screening concentration: TAO2
T4 construct: screened for activity against several kinases in Jurkat cells; endogenous in cells; host or cells: Jurkat cell lysate
T4 sequence (Q9UL54 1-1235): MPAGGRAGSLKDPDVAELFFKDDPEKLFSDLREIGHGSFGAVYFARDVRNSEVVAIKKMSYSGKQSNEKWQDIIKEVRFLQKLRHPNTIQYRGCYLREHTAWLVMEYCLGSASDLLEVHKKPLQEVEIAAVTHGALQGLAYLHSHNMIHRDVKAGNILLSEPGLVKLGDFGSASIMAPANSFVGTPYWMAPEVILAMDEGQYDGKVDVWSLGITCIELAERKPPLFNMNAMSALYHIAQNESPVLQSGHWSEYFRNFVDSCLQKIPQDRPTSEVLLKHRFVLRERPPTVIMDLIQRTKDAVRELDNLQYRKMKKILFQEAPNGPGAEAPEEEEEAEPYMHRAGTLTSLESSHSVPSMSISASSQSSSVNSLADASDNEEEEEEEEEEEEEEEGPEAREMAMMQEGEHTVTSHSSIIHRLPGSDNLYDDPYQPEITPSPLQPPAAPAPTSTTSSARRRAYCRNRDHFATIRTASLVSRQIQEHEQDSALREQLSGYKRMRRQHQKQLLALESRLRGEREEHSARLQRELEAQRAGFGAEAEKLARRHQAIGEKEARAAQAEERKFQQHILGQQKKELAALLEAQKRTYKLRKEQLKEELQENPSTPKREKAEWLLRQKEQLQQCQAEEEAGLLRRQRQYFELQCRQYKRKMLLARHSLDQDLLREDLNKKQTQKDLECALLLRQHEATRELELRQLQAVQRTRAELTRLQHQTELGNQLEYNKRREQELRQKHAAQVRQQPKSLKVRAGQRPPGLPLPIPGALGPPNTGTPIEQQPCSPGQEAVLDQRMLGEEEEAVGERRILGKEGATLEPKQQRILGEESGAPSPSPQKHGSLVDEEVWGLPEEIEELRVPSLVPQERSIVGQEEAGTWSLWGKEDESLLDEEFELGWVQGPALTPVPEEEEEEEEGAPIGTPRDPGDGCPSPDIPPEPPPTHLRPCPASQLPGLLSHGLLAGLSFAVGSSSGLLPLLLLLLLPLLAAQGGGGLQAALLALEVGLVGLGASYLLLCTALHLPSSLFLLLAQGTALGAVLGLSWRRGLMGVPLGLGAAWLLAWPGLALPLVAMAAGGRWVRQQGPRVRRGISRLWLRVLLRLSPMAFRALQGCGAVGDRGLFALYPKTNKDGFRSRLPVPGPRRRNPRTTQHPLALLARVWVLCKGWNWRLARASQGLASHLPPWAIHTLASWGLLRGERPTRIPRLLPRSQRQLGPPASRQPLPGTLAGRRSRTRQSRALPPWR
Procedure: as §1, §2, §3, §4

ACK = target: T5, ACK (Homo sapiens, UniProt Q07912); assay: Probe-based (AX9989) kinase profiling in Jurkat lysate: ACK; conditions: screening concentration 1.0 μM; read-out: Kinase inhibition % at indicated screening concentration: ACK
T5 construct: screened for activity against several kinases in Jurkat cells; endogenous in cells; host or cells: Jurkat cell lysate
T5 sequence (Q07912 whole entry): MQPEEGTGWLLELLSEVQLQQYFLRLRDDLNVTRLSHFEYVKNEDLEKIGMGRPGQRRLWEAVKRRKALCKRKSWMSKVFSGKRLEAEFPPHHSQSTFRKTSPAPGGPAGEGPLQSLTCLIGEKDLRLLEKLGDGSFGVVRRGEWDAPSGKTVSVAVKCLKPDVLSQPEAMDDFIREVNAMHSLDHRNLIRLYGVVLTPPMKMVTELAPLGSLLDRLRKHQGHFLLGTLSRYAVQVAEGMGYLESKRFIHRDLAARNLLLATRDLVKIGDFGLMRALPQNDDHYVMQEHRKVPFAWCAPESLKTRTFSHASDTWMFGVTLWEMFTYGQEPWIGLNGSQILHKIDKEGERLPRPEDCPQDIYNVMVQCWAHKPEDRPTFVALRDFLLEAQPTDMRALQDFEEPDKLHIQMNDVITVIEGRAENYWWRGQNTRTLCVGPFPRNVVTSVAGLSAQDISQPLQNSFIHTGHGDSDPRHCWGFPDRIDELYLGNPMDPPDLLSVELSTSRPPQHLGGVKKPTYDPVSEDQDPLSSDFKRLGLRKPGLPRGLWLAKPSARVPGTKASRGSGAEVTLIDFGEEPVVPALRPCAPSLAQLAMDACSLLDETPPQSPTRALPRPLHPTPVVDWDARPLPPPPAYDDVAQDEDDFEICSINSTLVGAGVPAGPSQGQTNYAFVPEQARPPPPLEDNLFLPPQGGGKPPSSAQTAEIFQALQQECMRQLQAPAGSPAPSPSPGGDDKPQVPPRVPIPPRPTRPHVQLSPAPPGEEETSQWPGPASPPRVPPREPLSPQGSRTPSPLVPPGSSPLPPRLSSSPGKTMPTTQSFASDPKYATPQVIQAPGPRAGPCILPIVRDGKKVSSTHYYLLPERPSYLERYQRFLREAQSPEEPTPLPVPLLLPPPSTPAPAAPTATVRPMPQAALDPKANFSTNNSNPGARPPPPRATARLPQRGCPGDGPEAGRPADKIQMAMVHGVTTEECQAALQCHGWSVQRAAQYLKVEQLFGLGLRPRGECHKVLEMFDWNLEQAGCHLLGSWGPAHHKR
Procedure: as §1, §2, §3, §4

ABL or ARG = assay: Probe-based (AX9989) kinase profiling in Jurkat lysate: ABL or ARG; conditions: screening concentration 1.0 μM
Procedure: as §1, §2, §3, §4

Row | Structure (SMILES) | IC50 (ERK5) [nM] | inhibition at 1 µM (ERK5) [%] | inhibition at 1 µM (AurA) [%] | Kinase inhibition % at indicated screening concentration: AurB or AurC (AurB or AurC) | inhibition at 1 µM (JAK1) [%] | Kinase inhibition % at indicated screening concentration: AMPKa1 or AMPKa2 (AMPKa1 or AMPKa2) | inhibition at 1 µM (TAO2) [%] | inhibition at 1 µM (ACK) [%] | Kinase inhibition % at indicated screening concentration: ABL or ARG (ABL or ARG)
1 | Cc1ccccc1Nc1cc2c(cn1)N(C)C(=O)c1ccccc1N2C [Compound 58] | > 500 | 50 to 75 | ≤ 35 | E (E is ≦35%) | ≤ 35 | E (E is ≦35%) | ≤ 35 | ≤ 35 | E (E is ≦35%)
2 | CN1C(=O)c2ccccc2N(C)c2cc(N[C@H]3CC[C@H](NC(=O)N4CCCC4)CC3)ncc21 [Compound 60] | 101 to 500 | 75 to 90 | ≤ 35 | E (E is ≦35%) | ≤ 35 | E (E is ≦35%) | ≤ 35 | ≤ 35 | E (E is ≦35%)
3 | CN1C(=O)C2CCCCC2N(C)c2cc(NC3CCC(O)CC3)ncc21 (stereo not drawn) [Compound 76] | > 500 | ≤ 35 | ≤ 35 | E (E is ≦35%) | ≤ 35 | E (E is ≦35%) | ≤ 35 | ≤ 35 | E (E is ≦35%)
4 | CN(C)CCn1cc(Nc2cc3c(cn2)N(C)C(=O)c2ccccc2N3C)cn1 [Compound 77] | 101 to 500 | 75 to 90 | 50 to 75 | B (B is >75% to ≦90%) | ≤ 35 | E (E is ≦35%) | 35 to 50 | ≤ 35 | E (E is ≦35%)
5 | COC(=O)[C@H]1CC[C@H](Nc2cc3c(cn2)N(C)C(=O)c2ccccc2N3C)CC1 [Compound 81] | > 500 | 50 to 75 | ≤ 35 | E (E is ≦35%) | ≤ 35 | E (E is ≦35%) | ≤ 35 | ≤ 35 | E (E is ≦35%)
6 | CN1C(=O)c2ccccc2N(C)c2cc(Nc3ccccc3Cl)ncc21 [Compound 86] | > 500 | 50 to 75 | ≤ 35 | E (E is ≦35%) | ≤ 35 | E (E is ≦35%) | ≤ 35 | ≤ 35 | E (E is ≦35%)
7 | COc1ccc(C(=O)N2CCNCC2)cc1Nc1cc2c(cn1)N(C)C(=O)c1ccccc1N2C [Compound 87] | 101 to 500 | 50 to 75 | ≤ 35 | E (E is ≦35%) | ≤ 35 | E (E is ≦35%) | ≤ 35 | ≤ 35 | E (E is ≦35%)
8 | CN1C(=O)C2CCCCC2N(C)c2cc(NC3CCC(N)CC3)ncc21 (stereo not drawn) [Compound 97] | > 500 | ≤ 35 | ≤ 35 | E (E is ≦35%) | ≤ 35 | E (E is ≦35%) | ≤ 35 | ≤ 35 | E (E is ≦35%)
9 | CCOc1cc(Cl)ccc1Nc1cc2c(cn1)N(C)C(=O)c1ccccc1N2C [Compound 104] | > 500 | 35 to 50 | ≤ 35 | E (E is ≦35%) | ≤ 35 | E (E is ≦35%) | ≤ 35 | ≤ 35 | E (E is ≦35%)
